In PubChem BioAssay AID1208 (EPA DSSTox, 2008):
Calls of active or inactive are those of the source.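 Rule for the calls: active = at least one rat sex group has a carcinogenic potency value and tumor site recorded; inconclusive = only rat studies were judged inadequate by the national testing program; inactive = no potency or tumor site, with negative rat experiments.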

Tested on: rat chronic carcinogenicity bioassay, TD50
Experiment: DSSTox (CPDBAS) Carcinogenic Potency Database Summary Rat Bioassay Results
Conditions: for Potency: stronger effect = lower value; for outcome: TD50_Rat_Note: no positive results
Excerpt: The Carcinogenic Potency Database (CPDB) is a unique and widely used international resource of the results of over 6500 chronic, long-term animal cancer tests on over 1500 chemical substances. The CPDB provides easy access to the bioassay literature, with qualitative and quantitative analyses of both positive and negative experiments that have been published over the past 50 years in the general literature and by the National Cancer Institute/National Toxicology Program. The CPDB standardizes the diverse literature of cancer bioassays that vary widely in protocol, histopathological examination and nomenclature, and in the published author's choices of what information to provide in their papers. Results are reported in the CPDB for tests in rats, mice, hamsters, dogs, and nonhuman primates, and are based on the most positive result among all experiments for each sex-species. The DSSTox CPDBAS (all species) file incorporates data from the CPDB Summary Tables for the full list of over 1500 chemical substances tested in at least one species. Summary bioassay results for Rat (TD50, tumor sites, male, female, both sexes) are provided in the CPDB Summary Tables and the DSSTox CPDBAS file for over 1200 chemical substances.
TD50 is a standardized quantitative measure of carcinogenic potency (analogous to an LD50) and is reported in the CPDB Summary Table for each species. Activity Score for actives is computed by mapping of LOG10 (1/TD50_Rat_mmol) activity values spanning range [MIN, MAX] onto Integer 1-100 Activity Score range, where 100 is highest potency and 1 is lowest: Activity Score = 100 * INTEGER[(log10(1/Activity) - MIN)/(MAX - MIN)]. If activity is reported but no TD50_Rat_mmol value is computed, such as for a mixture, the Activity Score is assigned the activity value "50". […] Target sites are reported for each sex-species group with a positive result in the CPDB on the basis of a positive author's opinion for the particular site, using all results from both the general literature and NCI/NTP bioassays. If a chemical has two or more target sites listed, the results may be from different experiments, and a single site may be a target organ in more than one experiment, as well. Blank entry in TargetSites field indicates no results reported.

[1] = TargetSites_Rat_Female: no positive results

Compound: Nc1ncn([C@@H]2O[C@H](CO)[C@@H](O)[C@H]2O)c(=O)n1
- Potency (TD50_Rat_Note: positive test results only by intraperitoneal or intravenous injection, TargetSites_Rat_Female: NTP bioassay inadequate): 0.17 mg/kg/day

Compound: c1ccc2c(c1)cc1ccc3cccc4ccc2c1c34
- Potency (TargetSites_Rat_BothSexes: stomach): 0.956 mg/kg/day

Compound: CN(N=O)c1ccccc1
- Potency (TD50_Rat_Note: TD50 is harmonic mean of more than one positive test, harmonic mean of TD50 includes a value for upper 99% confidence li, TargetSites_Rat_Female: esophagus): 0.142 mg/kg/day

Compound: O=c1[nH]cc(F)c(=O)[nH]1
- outcome [1]: inactive; no positive results

Compound: CN(C)C(=S)[S][Pb][S]C(=S)N(C)C
- outcome [1]: inactive; no positive results

Compound: CC(C)(C)c1cc(C(C)(C)C)c(O)c(C(C)(C)C)c1
- outcome [1]: inactive; no positive results

Compound: OCc1ccccc1
- outcome [1]: inactive; no positive results

Compound: CCCCCCc1ccc(O)cc1O
- outcome [1]: inactive; no positive results

Compound: [N-]=[N+]=CC(=O)OC[C@H](N)C(=O)O
- Potency (TD50_Rat_Note: positive test results only by intraperitoneal or intravenous injection, TargetSites_Rat_BothSexes: pancreas): 0.793 mg/kg/day

Compound: c1ccc(Nc2ccc(Nc3ccccc3)cc2)cc1
- outcome [1]: inactive; no positive results

Compound: CCN=[N+](C)[O-]
- Potency: 11.5 mg/kg/day

Compound: C=CC#N
- Potency (TD50_Rat_Note: TD50 is harmonic mean of more than one positive test, greater than ten-fold variation among TD50 values for positive res, TargetSites_Rat_Female: ear Zymbals gland, mammary gland, nasal cavity, nervous system, oral cavity, small intestine, stomach): 16.9 mg/kg/day

Compound: CCCCCc1cc(O)c2c(c1)OC(C)(C)[C@@H]1CCC(C)=C[C@@H]21
- outcome [1]: inactive; no positive results

Compound: CCN(C=O)CC
- outcome: inactive; no positive results

Compound: O=C1c2ccccc2C(=O)N1SC(Cl)(Cl)Cl
- outcome [1]: inactive; no positive results

Compound: COc1cc2c(c3oc(=O)c4c(c13)CCOC4=O)C1C=COC1O2 (stereo not given)
- Potency (TD50_Rat_Note: TD50 is harmonic mean of more than one positive test, TD50_Rat_mmol was not calculated for this mixture, but Activiity S): 0.00299 mg/kg/day

Compound: NC1=NCN([C@@H]2O[C@H](CO)[C@@H](O)[C@H]2O)C(=O)N1
- outcome: inactive; no positive results

Compound: Nc1cccc2c(N)cccc12
- Potency (TargetSites_Rat_Female: clitoral gland, uterus): 69.6 mg/kg/day

Compound: OCC(CO)(CBr)CBr
- Potency (TD50_Rat_Note: TD50 is harmonic mean of more than one positive test, TargetSites_Rat_Female: esophagus, mammary gland, oral cavity, thyroid gland): 111 mg/kg/day

Compound: ClC1(Cl)C2(Cl)C3(Cl)C4(Cl)C(Cl)(Cl)C5(Cl)C3(Cl)C1(Cl)C5(Cl)C24Cl (stereo not given)
- Potency (TD50_Rat_Note: TD50 is harmonic mean of more than one positive test, TargetSites_Rat_Female: hematopoietic system, liver): 1.77 mg/kg/day

Compound: Nc1ccc(N)cc1
- outcome [1]: inactive; no positive results

Compound: CCCC[C@H](C)[C@@H](OC(=O)C[C@H](CC(=O)O)C(=O)O)[C@@H](C[C@H](C)C[C@@H](O)CCCC[C@@H](O)C[C@H](O)[C@H](C)N)OC(=O)C[C@H](CC(=O)O)C(=O)O
- Potency (TD50_Rat_Note: TD50 is harmonic mean of more than one positive test, TargetSites_Rat_Female: no positive results): 1.5 mg/kg/day

Compound: Cc1ccccc1[N+](=O)[O-]
- Potency (TD50_Rat_Note: TD50 is harmonic mean of more than one positive test, greater than ten-fold variation among TD50 values for positive res, TargetSites_Rat_Female: liver, mammary gland, subcutaneous tissue): 4.66 mg/kg/day

Compound: Cc1ccc(N)cc1Cl
- outcome [1]: inactive; no positive results

Compound: COP(=S)(OC)Oc1ccc([N+](=O)[O-])cc1
- outcome [1]: inactive; no positive results

Compound: COC(=O)[C@H]1[C@H]2C[C@@H]3c4[nH]c5cc(OC)ccc5c4CCN3C[C@H]2C[C@@H](OC(=O)c2cc(OC)c(OC)c(OC)c2)[C@@H]1OC
- Potency [1]: 0.306 mg/kg/day

Compound: O=[N+]([O-])c1cccc2cccnc12
- Potency (TD50_Rat_Note: TD50 is harmonic mean of more than one positive test, TargetSites_Rat_Female: stomach): 9.82 mg/kg/day

Compound: Clc1cnc(Oc2ccc(Oc3ncc(Cl)cc3Cl)cc2)c(Cl)c1
- outcome: inactive; no positive results

Compound: O.O.O.O.O.O.O.O=S(=O)([O-])[O-].[Co+2]
- Potency (TD50_Rat_Note: TD50 is harmonic mean of more than one positive test, TargetSites_Rat_Female: adrenal gland, lung): 0.137 mg/kg/day

Compound: CNNCc1ccc(C(=O)NC(C)C)cc1
- Potency (TD50_Rat_Note: positive test results only by intraperitoneal or intravenous injection, TD50 is harmonic mean of more than one positive, TargetSites_Rat_Female: hematopoietic system, mammary gland, nervous system): 0.351 mg/kg/day
- Potency (TD50_Rat_Note: positive test results only by intraperitoneal or intravenous injection): 4.01 mg/kg/day

Compound: CC(=O)OC[C@H]1O[C@H](O[C@]2(COC(C)=O)O[C@H](COC(=O)C(C)C)[C@@H](OC(=O)C(C)C)[C@@H]2OC(=O)C(C)C)[C@H](OC(=O)C(C)C)[C@@H](OC(=O)C(C)C)[C@@H]1OC(=O)C(C)C
- outcome [1]: inactive; no positive results

Compound: O=NN1CCCC1
- Potency (TD50_Rat_Note: TD50 is harmonic mean of more than one positive test, harmonic mean of TD50 includes a value for upper 99% confidence li, TargetSites_Rat_Female: liver, vascular system): 0.799 mg/kg/day

Compound: Cc1ccc2c(c1N)C(=O)c1ccccc1C2=O
- Potency (TD50_Rat_Note: TD50 is harmonic mean of more than one positive test, TargetSites_Rat_Female: liver): 59.2 mg/kg/day

Compound: C[C@H](CCC(=O)O)[C@H]1CC[C@H]2[C@@H]3CC[C@@H]4C[C@H](O)CC[C@]4(C)[C@H]3CC[C@]12C
- outcome [1]: inactive; no positive results

Compound: C=C(C)C#N
- outcome [1]: inactive; no positive results

Compound: CC(=O)Nc1ccc(C(=O)CCl)cc1
- outcome [1]: inactive; no positive results

Compound: COC(=O)C(c1ccccc1)C1CCCCN1 (stereo not given)
- outcome [1]: inactive; no positive results

Compound: CC(=O)CN(N=O)C(=O)NCCCl
- outcome [1]: inactive; no positive results

Compound: CC1(C)O[C@@H]2C[C@H]3[C@@H]4CCC5=CC(=O)C=C[C@]5(C)[C@@]4(F)[C@@H](O)C[C@]3(C)[C@]2(C(=O)CO)O1
- Potency: 0.053 mg/kg/day

Compound: ClC(Cl)(Cl)C(Cl)(Cl)Cl
- Potency [1]: 55.4 mg/kg/day

Compound: Cn1cc(C(=O)[C@@H]2CCc3nc[nH]c3C2)c2ccccc21
- outcome [1]: inactive; no positive results

Compound: Cc1cc2c(nc1N)[nH]c1ccccc12
- Potency: 6.7 mg/kg/day

Compound: C[C@]12CC[C@@H]3c4ccc(OC(=O)Cc5ccc(N(CCCl)CCCl)cc5)cc4CC[C@H]3[C@@H]1CC[C@@H]2OC(=O)Cc1ccc(N(CCCl)CCCl)cc1
- outcome [1]: inactive; no positive results

Compound: OCC(CO)N[C@H]1C[C@](O)(CO)[C@@H](O)[C@H](O)[C@H]1O
- outcome [1]: inactive; no positive results

Compound: Cc1ncc[nH]1
- Potency (TD50_Rat_Note: TD50 is harmonic mean of more than one positive test, TargetSites_Rat_Female: thyroid gland): 868 mg/kg/day

Compound: O=S(=O)(O)c1ccc(N=Nc2cc(S(=O)(=O)O)c3ccccc3c2O)c2ccccc12
- outcome [1]: inactive; no positive results

Compound: COC1[C@@H](O[C@@H]2O[C@H](C)[C@@H](O[C@H]3C[C@@](C)(O)[C@H](OC(=O)CC(C)C)[C@H](C)O3)[C@H](N(C)C)[C@H]2O)[C@@H](CC=O)C[C@@H](C)[C@@H](O)/C=C/C=C/C[C@@H](C)OC(=O)C[C@H]1OC(C)=O (stereo not given in full)
- outcome [1]: inactive; no positive results

Compound: CCOP(=S)(OCC)Oc1ccc2c(C)c(Cl)c(=O)oc2c1
- outcome [1]: inactive; no positive results

Compound: C1CO1
- Potency (TD50_Rat_Note: TD50 is harmonic mean of more than one positive test, greater than ten-fold variation among TD50 values for positive res, TargetSites_Rat_Female: nervous system, stomach): 21.3 mg/kg/day

Compound: O=S(=O)(O)c1cc(S(=O)(=O)O)c2c(N=Nc3ccc(S(=O)(=O)O)c4ccccc34)c(O)ccc2c1
- Potency (TargetSites_Rat_BothSexes: all tumor bearing animals): 24500 mg/kg/day

Compound: Cc1ccccc1
- Potency (TD50_Rat_Note: TD50 is harmonic mean of more than one positive test, TargetSites_Rat_Female: Maltoni head cancers): 3060 mg/kg/day

Compound: Cc1ccc([N+](=O)[O-])cc1
- Potency (TargetSites_Rat_Female: clitoral gland): 257 mg/kg/day

Compound: COC(=O)C1=C(C)NC(C)=C(C(=O)OCCc2ccc(N3CCN(C(c4ccccc4)c4ccccc4)CC3)cc2)C1c1cccc([N+](=O)[O-])c1 (stereo not given)
- outcome [1]: inactive; no positive results

Compound: CC(C)(c1ccc(O)cc1)c1ccc(O)cc1
- outcome [1]: inactive; no positive results

Compound: C=CCOc1ccccc1OCC(O)CNC(C)C (stereo not given)
- outcome [1]: inactive; no positive results

Compound: Clc1cccc(-c2ccc(Cl)c(Cl)c2Cl)c1Cl
- Potency (TD50_Rat_Note: TD50 is harmonic mean of more than one positive test, TD50_Rat_mmol was not calculated for this mixture, but Activiity S, TargetSites_Rat_Female: liver): 4.8 mg/kg/day

Compound: CC1=C(C)C(=O)C(C(CCCCCC(=O)O)c2ccccc2)=C(C)C1=O (stereo not given)
- outcome [1]: inactive; no positive results

Compound: CC(=O)Nc1cccc2c1Cc1ccccc1-2
- outcome [1]: inactive

Compound: Cc1cc(O)c2c(c1)C(=O)c1cc(O)cc(O)c1C2=O
- outcome [1]: inactive; no positive results

Compound: ClC(Cl)=C(Cl)C(Cl)=C(Cl)Cl
- Potency (TD50_Rat_Note: TD50 is harmonic mean of more than one positive test, TargetSites_Rat_Female: kidney): 65.8 mg/kg/day

Compound: CN(N=O)C(N)=O
- Potency: 0.0927 mg/kg/day

Compound: O=[N+]([O-])c1cccc2ccccc12
- outcome [1]: inactive; no positive results

Compound: COc1ccc(C(=O)/C(Br)=C\C(=O)O)cc1
- Potency (TD50_Rat_Note: positive test results only by intraperitoneal or intravenous injection, TD50 is harmonic mean of more than one positive, TargetSites_Rat_Female: mammary gland): 2.77 mg/kg/day

Compound: Nc1ccc(O)c(N)c1
- outcome [1]: inactive; no positive results
